The conditions of data set [1]: cited from earlier work.
Data set [2] concerns K562 cells with wild-type UMPS. Kind of data set: K562 xenograft model, bioluminescence imaging. The class given is in vivo, NSG mice. To be noted: UTA supplemented food (same with normal food). The text has this:
(§1) For the K562 xenograft assay, 6 to 12 weeks old male NOD SCID gamma mouse (NSG) mice were transplanted with 1×10^6 K562 cells resuspended in […]® protein mixture (Corning, Inc.) 1:1 diluted with PBS under anesthesia. All animals were kept and handled according to institutional guidelines and the experimental protocol was approved by Stanford University's Administrative Panel on Laboratory Animal Care.
(§2) The previously engineered UMPSK^KO/KO K562 cell line expressing firefly luciferase (FLuc) was used in a xenograft model in NSG mice. […] Cas9 RNP is targeted to exon 1 of the HBB locus with a guide RNA and a DNA donor template transduced by rAAV6 which carries a FLuc-2A-GFP-polyA cassette under control of the SFFV promoter. FACS analysis was performed four days after targeting of K562 cells to evaluate GFP expression before sorting of the GFP+ population. In a control group administered the AAV only, 1.61% of the cells were GFP+, and […]. […]
(§3) UMPSK^KO/KO K562 cells or control cells were transplanted subcutaneously and observed weekly with bioluminescence imaging. Luminescence imaging of K562 cells was performed 5 minutes after intraperitoneal (ip) injection of 125 mg/kg D-Luciferin (PerkinElmer) on an IVIS Spectrum imaging system (PerkinElmer). […]

The subject of another data set is UMPS^KO/KO K562 cells. Briefly: K562 xenograft model, bioluminescence imaging. The class given is in vivo, NSG mice. To be noted: mice fed with 8% UTA.
Source text: as §1, §2, §3

Each structure is given as a SMILES string.

For `CC(=O)OC[C@H]1O[C@@H](n2ccc(=O)[nH]c2=O)[C@H](OC(C)=O)[C@@H]1OC(C)=O` [UTA, uridine triacetate], the “Increase of uridine serum levels” value in data set [1] (humans and mouse models, administration as prodrug) is given as “greater than 10 fold”. In addition, in data set [1] (mice, food enriched with 8% (w/w) UTA), the Tolerability entry is recorded as “well tolerated”. In data set [2], the “Tumor burden of UMPS wild-type K562 cells” value is listed as “increase in tumor burden”. Besides, the “Luminescence of UMPS^KO/KO K562-derived tumors” value in the data set with UMPS^KO/KO K562 cells is “increased”.

The values are drawn from patent US20220290103A1, “METHODS AND COMPOSITIONS USING AUXOTROPHIC REGULATABLE CELLS” (AUXOLYTIC LTD, priority 2019, published 2022).
